Measurements from US8557816B2, “Aurora kinase modulators and method of use” (Amgen Inc., priority 2007, dated 2013).
Where two headings read alike, the source gives them in different places.

What was measured:
AuroraB = biological target: T1, AuroraB (Homo sapiens, UniProt Q96GD4); test: AuroraB Homogeneous Time Resolved Fluorescent (HTRF) kinase assay; format: biochemical
T1 construct: 20 μL of AuroraB FL H is for a final volume of 41 μL; His
Procedure: AuroraB-Homogeneous Time Resolved Fluorescent (HTRF) Kinase Assay:
The AuroraB HTRF assay begins with AuroraB in the presence of ATP phosphorylating the biotinylated peptide Histone H3. The reaction incubates for about 90 min. the reaction is quenched by addition of detection reagents, which stop the reaction by diluting out the enzyme and chelating the metals due to the presence of EDTA. After addition, the assay is incubated for about 60 min to allow detection reagents to equilibrate.
The AuroraB HTRF assay comprises 1 μL of compound in 100% DMSO, 20 μL of ATP and biotinylated Histone H3, and 20 μL of AuroraB FL H is for a final volume of 41 μL. The final concentration of Histone H3 is 0.1 μM. […] Buffer conditions are as follows: 50 mM HEPES pH 7.5, 5 mM NaCl, 0.5 mM MgCl, 0.5 mM MnCl, 2 mM DTT, 0.05% BSA.
(§1) The assay is quenched and stopped with 160 μL of detection reagent. Detection reagents are as follows: Buffer made of 50 mM Tris, pH 7.5, 100 mM NaCl, 3 mM EDTA, 0.05% BSA, 0.1% Tween20. Added to this buffer prior to reading is Steptavidin allophycocyanin (SA-APC) at a final conc in the assay of 0.001 mg/mL, and europilated anti-phosphoHistoneH3 Ab (Eu-anti-HisH3) at a final conc of 0.064 nM.
The assay plate is read in either a Discovery or a RubyStar. The eu-anti-HisH3 is excited at 320 nm and emits at 615 nm to excite the SA-APC which in turn emits at 655 nm.

AuroraA-TPX2 = biological target: T2, AuroraA-TPX2 (Homo sapiens, UniProt O14965); test: AuroraA-TPX2 Homogeneous Time Resolved Fluorescent (HTRF) kinase assay; format: biochemical; settings: average; read-out: AurA_IC50_IP (uM Avg)
T2 construct: 20 μL of AuroraA-TPX2 KD GST for a final volume of about 41 μL; GST
T2 sequence (O14965 133-383 limits assumed): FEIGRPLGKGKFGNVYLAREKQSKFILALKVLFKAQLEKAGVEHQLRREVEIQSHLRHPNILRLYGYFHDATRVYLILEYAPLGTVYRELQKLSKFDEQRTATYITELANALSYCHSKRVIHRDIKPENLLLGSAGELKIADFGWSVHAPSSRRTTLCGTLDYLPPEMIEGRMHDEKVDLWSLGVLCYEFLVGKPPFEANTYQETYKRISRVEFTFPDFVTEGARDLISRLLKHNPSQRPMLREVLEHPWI
T2 sequence (Q9ULW0 1-43 partner limits assumed): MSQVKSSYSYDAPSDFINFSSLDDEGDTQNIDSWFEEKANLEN
Procedure: AuroraA-TPX2-Homogeneous Time Resolved Fluorescent (HTRF) Kinase Assay:
The Aurora-A HTRF assay begins with Aurora-A in the presence of ATP phosphorylating the biotinylated peptide PLK. The reaction incubates for about 120 min. Detection reagents are added to quench the reaction. These agents stop the reaction by diluting out the enzyme and chelating the metals due to the presence of EDTA. After addition, the assay is incubated overnight to allow the detection reagents to equilibrate.
The AuroraA HTRF assay comprises 1 μL of compound in 100% DMSO, 20 μL of ATP and biotinylated PLK, and 20 μL of AuroraA-TPX2 KD GST for a final volume of about 41 μL. The final concentration of PLK is about 1 μM. […] Buffer conditions are as follows: 60 mM HEPES pH 7.5, 25 mM NaCl, 10 mM MgCl, 2 mM DTT, 0.05% BSA.
as §1, with “0.0005” for “0.001”, “anti-phosphoPLK” for “anti-phosphoHistoneH3”, “(Eu-anti-PLK)” for “(Eu-anti-HisH3)”, “0.02” for “0.064”
The assay plate is read in either a Discovery or a RubyStar. The eu-anti-PLK is excited at 320 nm and emits at 615 nm to excite the SA-APC which in turn emits at 655 nm.

[1] = average, read-out: AurB_IC50_IP (uM Avg)

T1 sequence (Q96GD4 whole entry): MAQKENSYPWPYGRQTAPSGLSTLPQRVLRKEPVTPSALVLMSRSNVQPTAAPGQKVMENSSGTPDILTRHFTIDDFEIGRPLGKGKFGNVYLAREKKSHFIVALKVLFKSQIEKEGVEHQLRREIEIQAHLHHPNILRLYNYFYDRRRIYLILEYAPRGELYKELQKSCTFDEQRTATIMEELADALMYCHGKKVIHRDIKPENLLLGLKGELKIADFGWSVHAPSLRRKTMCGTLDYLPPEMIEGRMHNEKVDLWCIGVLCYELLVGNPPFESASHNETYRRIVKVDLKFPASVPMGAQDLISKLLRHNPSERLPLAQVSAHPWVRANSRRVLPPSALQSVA

| IC50 (AuroraB; [1]) | IC50 (AuroraA-TPX2) | IC50 (AuroraB; given as class symbol, read-out: AurB_IC50_IP (class symbol)) | Structure (SMILES) |
| --- | --- | --- | --- |
| 5 µM |  |  | N#Cc1ccc2c(Oc3ccc(Nc4nnc(-c5ccccc5)c5ccccc45)cn3)ccnc2c1 [compound 174, 4-(5-(4-phenylphthalazin-1-ylamino)pyridin-2-yloxy)quinoline-7-carbonitrile] |
| 0.002 µM | 0.005 µM |  | COc1cnc2c(Oc3ccc(Nc4nnc(-c5cccc(N(C)C)c5)c5ccccc45)cc3)ccnc2c1 [compound 258, 4-(3-(dimethylamino)phenyl)-N-(4-((7-(methyloxy)-1,5-naphthyridin-4-yl)oxy)phenyl)-1-phthalazinamine] |
| 0.007 µM | 0.04 µM |  | COc1cnc2c(Oc3ccc(Nc4nnc(-c5cc(C)no5)c5ccccc45)cc3)ccnc2c1 [compound 350, N-(4-(7-methoxy-1,5-naphthyridin-4-yloxy)phenyl)-4-(3-methylisoxazol-5-yl)phthalazin-1-amine] |
| 0.005 µM | 0.239 µM |  | COc1cnc2c(Sc3ccc(Nc4nnc(OCCC5CCCCN5)c5ccccc45)cc3)ccnc2c1 (stereo not drawn) [Example 403, N-(4-(7-Methoxy-1,5-naphthyridin-4-ylthio)phenyl)-4-(2-(piperidin-2-yl)ethoxy)phthalazin-1-amine] |
| 0.022 µM | 0.087 µM |  | Cc1noc(-c2cc3nccc(Oc4ccc(Nc5nnc(-c6ccc(Cl)cc6)c6ccccc56)cc4)c3s2)n1 [compound 286, 4-(4-chlorophenyl)-N-(4-((2-(3-methyl-1,2,4-oxadiazol-5-yl)thieno[3,2-b]pyridin-7-yl)oxy)phenyl)-1-phthalazinamine] |
| 0.006 µM | 0.036 µM |  | COc1cnc2c(Sc3ccc(Nc4nnc(N5CCN6CCCC[C@H]6C5)c5ccccc45)cc3)ccnc2c1 [compound 585] |
| 0.017 µM | 0.157 µM |  | COc1cc(F)cc2nccc(Oc3ccc(Nc4nnc(-c5cc(C)cs5)c5ccccc45)cc3)c12 [compound 442] |
| 0.009 µM | 0.025 µM |  | COc1cc2nccc(Sc3ccc(Nc4nnc(-c5ccc(Cl)cc5)c5ccccc45)cc3)c2cn1 [compound 354, 4-(4-chlorophenyl)-N-(4-(7-methoxy-1,6-naphthyridin-4-ylthio)phenyl)phthalazin-1-amine] |
| 0.006 µM | 0.012 µM |  | COc1cnc2c(Oc3ccc(Nc4nnc(-c5ccc(C)cc5)c5ccccc45)cc3)ccnc2c1 [compound 81, N-(4-((7-(methyloxy)-1,5-naphthyridin-4-yl)oxy)phenyl)-4-(4-methylphenyl)-1-phthalazinamine] |
| 0.008 µM | 0.146 µM |  | Clc1ccc(-c2nnc(Nc3ccc(Sc4ccnc5cc[nH]c45)cc3)c3ccccc23)cc1 [compound 463, 4-(4-chlorophenyl)-N-(4-(1H-pyrrolo[3,2-b]pyridin-7-ylthio)phenyl)-1-phthalazinamine] |
| 0.017 µM | 0.15 µM |  | c1ccc2c(Sc3ccc(Nc4nnc(-c5ccc6c(c5)OCO6)c5ccccc45)cc3)ccnc2c1 [compound 517] |
| 0.098 µM | 0.168 µM |  | Cc1cc2nccc(Sc3ccc(Nc4nnc(-c5ccc(Cl)cc5)c5ccccc45)cc3)c2s1 [compound 559] |
| 0.014 µM | 0.187 µM |  | COc1cnc2c(Oc3ccc(Nc4nnc(-c5cccc(C(=O)N(C)C)c5)c5ccccc45)cc3)ccnc2c1 [compound 226, N,N-dimethyl-3-(4-((4-((7-(methyloxy)-1,5-naphthyridin-4-yl)oxy)phenyl)amino)-1-phthalazinyl)benzamide] |
|  | 1.39 µM |  | COc1cnc2c(Oc3ccc(Nc4nnc(-c5nccn5C)c5ccccc45)cc3)ccnc2c1 [Example 30, N-(4-(7-methoxy-1,5-naphthyridin-4-yloxy)phenyl)-4-(1-methyl-1H-imidazol-2-yl)phthalazin-1-amine] |
| 0.036 µM |  |  | Clc1ccc(-c2nnc(Nc3ccc(Sc4ccnc5ccccc45)cc3)c3ccccc23)cc1 [compound 333, 4-(4-chlorophenyl)-N-(4-(quinolin-4-ylthio)phenyl)phthalazin-1-amine] |
| 0.093 µM |  |  | Fc1cc(F)c2c(Sc3ccc(Nc4nnc(-c5ccccc5)c5ccccc45)cc3)ccnc2c1 [compound 311, N-(4-((5,7-difluoro-4-quinolinyl)thio)phenyl)-4-phenyl-1-phthalazinamine] |
| 0.07 µM |  |  | Cc1noc(-c2cc3nccc(Sc4ccc(Nc5nnc(-c6ccccc6)c6ccccc56)cc4)c3s2)n1 [compound 318, N-(4-((2-(3-methyl-1,2,4-oxadiazol-5-yl)thieno[3,2-b]pyridin-7-yl)thio)phenyl)-4-phenyl-1-phthalazinamine] |
| 1 µM |  |  | COc1ccc2c(Oc3ccc(Nc4nnc(-c5ccc(C(F)(F)F)cc5)c5ccccc45)cc3)c(F)cnc2c1 [Example 39, N-(4-(3-fluoro-7-methoxyquinolin-4-yloxy)phenyl)-4-(4-(trifluoromethyl)phenyl) phthalazin-1-amine] |
| 0.189 µM |  |  | COc1cc2nncc(Oc3ccc(Nc4nnc(-c5ccc(Cl)cc5)c5ccccc45)cc3)c2cc1OC [compound 282, N-(4-((6,7-bis(methyloxy)-4-cinnolinyl)oxy)phenyl)-4-(4-chlorophenyl)-1-phthalazinamine] |
| 3 µM |  |  | Clc1ccc(-c2nnc(Nc3ccc(Oc4cnnc5ccc(Br)cc45)cc3)c3ccccc23)cc1 [compound 369, N-(4-(6-bromocinnolin-4-yloxy)phenyl)-4-(4-chlorophenyl)phthalazin-1-amine] |
|  | 0.011 µM |  | Cn1cncc1-c1cc2nccc(Oc3ccc(Nc4nnc(-c5ccc(Cl)cc5)c5ccccc45)cn3)c2s1 [compound 267, 4-(4-chlorophenyl)-N-(6-((2-(1-methyl-1H-imidazol-5-yl)thieno[3,2-b]pyridin-7-yl)oxy)-3-pyridinyl)-1-phthalazinamine] |
|  | 0.005 µM |  | Cc1ccc(-c2nnc(Nc3ccc(Oc4ccnc5cc(-c6cncn6C)sc45)cc3)c3ccccc23)nc1 [compound 255, N-(4-((2-(1-methyl-1H-imidazol-5-yl)thieno[3,2-b]pyridin-7-yl)oxy)phenyl)-4-(5-methyl-2-pyridinyl)-1-phthalazinamine] |
|  | 0.034 µM |  | COc1cnc2c(Oc3ccc(Nc4nnc(-c5cccc(N6CCCCC6)c5)c5ccccc45)cc3)ccnc2c1 [compound 197, N-(4-((7-(methyloxy)-1,5-naphthyridin-4-yl)oxy)phenyl)-4-(3-(1-piperidinyl)phenyl)-1-phthalazinamine] |
| 0.07 µM |  |  | Cc1noc(-c2cc3nccc(Sc4ccc(Nc5nnc(-c6ccccc6)c6ccccc56)cc4)c3s2)n1 [compound 303, N-(4-((2-(3-methyl-1,2,4-oxadiazol-5-yl)thieno[3,2-b]pyridin-7-yl)thio)phenyl)-4-phenyl-1-phthalazinamine] |
| 0.045 µM |  |  | Clc1ccc(-c2nnc(Nc3ccc(CN4CCOc5ccccc54)cc3)c3ccccc23)cc1 [compound 349, 4-(4-chlorophenyl)-N-(4-((2,3-dihydrobenzo[b][1,4]oxazin-4-yl)methyl)phenyl)phthalazin-1-amine] |
|  |  | < 0.1 µM | Fc1cc(F)c2c(Sc3ccc(Nc4nnc(-c5ccccc5)c5ccccc45)cc3)ccnc2c1 [compound 295, N-(4-((5,7-difluoro-4-quinolinyl)thio)phenyl)-4-phenyl-1-phthalazinamine] |
| 0.345 µM |  |  | CNC(=O)c1cc(Sc2ccc(Nc3nnc(-c4ccc(Cl)cc4)c4ccccc34)cc2)ccn1 [compound 360, 4-(4-(4-(4-chlorophenyl)phthalazin-1-ylamino)phenylthio)-N-methylpicolinamide] |
